Patent US6448283B1, “Methods for preventing/treating damage to sensory hair cells and cochlear neurons” (Cephalon, Inc., priority 1998, dated 2002)
“Also recorded” adds a separate entry of the source.

Legend:
[1] = system: outer hair cells in organotypic cultures of the neonatal organ of Corti; assay: Hair cell counts in neomycin-exposed cochlear explant cultures; assay type: cell-based, rat
Method: (§1) The basal half of cochleas containing the basal and middle turns were dissected from postnatal day 2 Wistar rats. The cultures were maintained on Nuclepore filters (pore size […]; Pleasanton, Calif.) placed on a metal grid in F12 medium (Life Technologies, Gaithersburg, Md.) containing 15% fetal bovine serum (Life Technologies). After a 2-hour-long stabilization period, explants were exposed to 100 mM neomycin sulfate (Sigma, St Louis, Mo.) for 48 hr.
(§2) Explants were fixed with 4% paraformaldehyde/0.5% glutaraldehyde in phosphate buffered saline (PBS), pH 7.4, for 30 min and dissected for surface preparations. They were stained with a 1:100 dilution of rhodamine-phalloidin in PBS containing 0.25% Triton X-l 00 overnight at 4° C. and mounted in Vectashield (Vector). Outer hair cell (OHC) numbers were quantified with a Zeiss Axiovert 100/135 epifluorescent microscope (Germany) connected to a Bio-Rad MRC-1024 confocal laser scanning system (Richmond, Calif.). Hair cells were characterized as missing if no stereocilia and cuticular plate were observed. Numbers of OHCs were evaluated using a 40×objective lens and an ocular grid. Nine to 1 fields filled by 30 OHCs in each of the 3 rows (when all of them were present) were studied from each explant. Basal and middle coils were analyzed separately. Three separate experiments, each including 4 explants of both conditions (neomycin and neomycin plus Formula II) were analyzed.
as §1, with “μM” for “mM”, “hr. The compounds of Formula I and the compound of Formula I were added at 500 nM at the time of initiation of the cultures and every 12 hr thereafter. Neomycin plus vehicle was used as a control.” for “hr.”
as §2, with “X-100” for “X-l 00”, “40x objective” for “40×objective”, “Several” for “Nine to 1”, “separately.” for “separately. Three separate experiments, each including 4 explants of both conditions (neomycin and neomycin plus Formula II) were analyzed.”

[2] = system: cochlear ganglion neurons; assay: Survival of dissociated cochlear neurons in culture; assay type: cell-based; details: E21 rat cochlear ganglia; Formula II 500 nM; NT-3 2 ng/ml in parallel cultures; 48 hr
Method: Neuronal enriched cultures from embryonic day 21 (E21) rat cochlear ganglia were prepared as previously described (Ylikoski et al., Hear. Res., 1998, 124:17-26). The cultures were maintained in F14 medium (Life Technologies, Gaithesburg, Md.) containing 10% horse serum (Life Technologies). […] After 48 hr, cultures were fixed with 4% paraformaldehyde and responses were assessed under a phase contrast microscope. Surviving neurons were distinguished by a phase-bright cell body and definite neurites.

[3] = system: hair cells (IHC, OHC) of the organ of Corti; assay: Cytocochleograms of missing hair cells after noise exposure (Example 2); assay type: in vivo, guinea pig; details: 2 weeks after noise exposure
[4] = system: JNK signaling cascade (JNK and c-Jun phosphorylation); assay: Phospho-JNK and phospho-c-Jun immunostaining in neomycin-exposed cochlear explants; assay type: cell-based, rat; details: 500 nM Formula II coincubated with neomycin; n=5 explants
Method: Six, 12 and 24 hr after adding 100 μM neomycin to the medium, cochlear cultures were fixed with 4% paraformaldehyde in PBS for 30 min. The specimens were prepared for 5 um-thick paraffin sections. They were stained with a TUNEL-kit, mounted in Vectashield containing DAPI nuclear counterstain (Vector, Burlingame, Calif.), and viewed under an Olympus Provis microscope (Tokyo, Japan) using epifluorescence. In addition to TUNEL-staining, DNA fragmentation was verified under UV illumination using DAPI counterstain.
Adjacent sections were immunostained with a polyclonal phospho-c-Jun antibody (Ser73, 1:500; New England Biolabs, Beverly, Mass.) and a polyclonal phospho-JNK antibody (Thr183/Tyr185, 1:250 dilution; New England Biolabs). The phospho-JNK antibody detects the dually phosphorylated isoforms of JNK 1, 2 and 3. The specificity of the phospho-specific antibodies was verified by Western blotting using sorbitol-treated PC 12 cells. Phospho-JNK antibody recognized the phosphorylated p54/p46 JNK and phospho-c-Jun antibody the phosphorylated p46 c-Jun in sorbitol-treated, but not in untreated PC 12 cells. […] Calbindin immunoreaction was detected using the ABC method and diaminobenzidine without tyramide signal amplification, and the sections were lightly counterstained with 1% toluidine blue. […]

For `CCSCc1ccc2c(c1)c1c3c(c4c5cc(CSCC)ccc5n5c4c1n2C1C[C@](O)(C(=O)OC)[C@]5(C)O1)CNC3=O` [Formula II], the “OHCs in the basal turn preserved” value ([1]; 500 nM Formula II co-incubated with neomycin for 48 hr, n=12) was “Approximately 90%”, the “neomycin-induced sensory hair cell loss/degeneration” value ([1]; 500 nM compound together with neomycin, 48 hr, in words) was “reduced; also recorded: prevented hair cell loss” and the viability at 0.5 µM ([1]; Rattus norvegicus, 48 h, compound 500 nM plus 100 μM neomycin 48 hr, NEO = neomycin plus vehicle, each line a separate count, read-out: % preserved) was 92%. For the same molecule, the “survival of cochlear neurons” value [2] was “as efficacious as NT-3”, the “hair cell loss versus noise-exposed control (cytocochleograms)” value ([3]; in words) was “rescues IHCs as well as OHCs of each of the 3 rows; also recorded: significantly lower percentage of sensory hair cells were lost” and the “extent of the area of destruction of the organ of Corti” value ([3]; Formula II treated cochleas) was 0.1-0.2 mm. The “induction of JNK and c-Jun phosphorylation in hair cells” value [4] was “prevented”.
